Data taken from patent US10239825B2, “Ketamine derivatives” (Auckland Uniservices Limited, priority 2013, dated 2019).

Legend:
[1] = system: adult female Sprague-Dawley rats; assay: rat infusion study: pedal withdrawal reflex PWR = 1 (analgesic effect); format: in vivo; conditions: for minimal effective dose: Rattus norvegicus, iv; for minimal effective dose / PWR = 1 Dose: total drug administered to achieve PWR = 1, i.v. infusion; for PWR = 1 Dose, head-to-head ratio to ketamine / PWR = 1 Time, head-to-head ratio to ketamine: ratio compound/ketamine; for PWR = 1 Time: time from onset of i.v. infusion to PWR = 1
Procedure: (§1) All animal experiments were conducted at the Ruakura Research Centre, Hamilton, New Zealand, using experimental protocols reviewed and approved by the Ruakura Animal Ethics Committee (ethics ref 12604).
(§2) Following acquisition of baseline physiologic parameters (heart rate, respiratory rate, PWR, and righting reflex (RR)) adult female Sprague-Dawley rats of approximately 350-450 g were put under non-traumatic restraint and the marginal vein of the tail was cannulated. Ketamine or a compound of the invention at 10 mg/ml was administered via a minibore extension tube adequately secured to the tail. Infusions were commenced at a rate (weight-adjusted) to deliver 20 mg/kg/min initially (until the pedal withdrawal reflex score PWR=1), then were reduced to a rate of 6.7 mg/kg/min. Infusion rate was then titrated in an up-and-down fashion to maintain dorsal recumbency and a PWR=1 to 10 minutes before cessation. Three rats were used in each study, with each group of rats also acting as their own ketamine control. The order of study drug administration was determined by prior odds/evens randomisation with a recovery interval of at least one hour afforded between experiments. PWR and RR were recorded at 1 minute intervals throughout. The times from cessation of infusion to return of righting reflex (RRR), and from cessation of infusion to the animals displaying independent locomotion (walk) were recorded.
Pedal Withdrawal Reflex (PWR) Scoring:
Nociceptive testing in animals was conducted via 1 second application of constant pressure (firm digital pressure) over the forepaw of the animal. Pedal withdrawal reflex testing is primarily used to assess analgesic effect, and responses are graded accordingly: 0, absent; 1, flicker; 2, moderate withdrawal; 3, fast withdrawal; 4, Fast withdrawal with cry/preceding apnoea (modified from Buitrago, S. et al. J. Amer. Assoc. Lab. Animal. Sci. 2008, 47, 11-17).

[2] = system: adult female Sprague-Dawley rats; assay: rat infusion study: loss/recovery of righting reflex and walk (anaesthetic effect); format: in vivo; conditions: for minimal effective dose: Rattus norvegicus, iv, read-out: LRR Dose; for minimal effective dose / LRR Dose: total drug administered to achieve loss of righting reflex, i.v. infusion; for LRR Dose, head-to-head ratio to ketamine / LRR Time, head-to-head ratio to ketamine / RRR Time, head-to-head ratio to ketamine / Walk Time, head-to-head ratio to ketamine: ratio compound/ketamine; for Walk Time: time from end of infusion to independent locomotion; for RRR Time: time from end of infusion to recovery of righting reflex; for LRR Time: time from onset of i.v. infusion to loss of righting reflex, 20 mg/kg/min initially
Procedure: as §1, §2
Loss of Righting Reflex (LRR):
This is primarily used to assess anaesthetic hypnotic effect. Righting reflex is judged absent when the rat fails to right from a position of dorsal recumbency to a position of sternal recumbency on three attempts performed in rapid succession. Dose to LRR is termed effective potency.

SMILES	minimal effective dose [1]	PWR = 1 Dose, head-to-head ratio to ketamine [1]	PWR = 1 Time, head-to-head ratio to ketamine [1]	PWR = 1 Time [1]	minimal effective dose [2]	properties of racemate versus enantiomer (in words) ([2]; rat infusion study, discussion)	LRR Dose, head-to-head ratio to ketamine [2]	LRR Time, head-to-head ratio to ketamine [2]	RRR Time, head-to-head ratio to ketamine [2]	Walk Time, head-to-head ratio to ketamine [2]	Walk Time [2]	RRR Time [2]	LRR Time [2]	melting point	PWR = 1 Dose [1]	LRR Dose [2]	recovery, fold faster than ketamine ([2]; after discontinuation of infusion)	potency (in words) ([2]; rat infusion study, discussion)	recovery (in words) ([2]; rat infusion study, discussion)
COC(=O)CCCCNC1(c2ccccc2Cl)CCCCC1=O.Cl (racemic) [rac-C4Me, Rac-Methyl 5-((1-(2-chlorophenyl)-2-oxocyclohexyl)amino)pentanoate Hydrochloride]	44 ± 10 mg/kg	2.00	1.53	124 ± 21 s	34 ± 7 mg/kg	broadly equivalent properties	1.70	1.31	0.090	0.086	126 ± 32 s	99 ± 16 s	92 ± 14 s	–	–	–	–	–	–
CC(C)OC(=O)CCCCNC1(c2ccccc2Cl)CCCCC1=O.Cl (racemic) [rac-C4iPr, Isopropyl 5-((1-(2-chlorophenyl)-2-oxocyclohexyl)amino)pentanoate Hydrochloride]	38 mg/kg	1.73	1.85	122 s	38 mg/kg	–	2.00	2.26	1.78	1.17	320 s	180 s	122 s	161 to 163 °C	–	–	–	–	–
CCCOC(=O)CCNC1(c2ccccc2Cl)CCCCC1=O.Cl (racemic) [rac-C2nPr, N-Propyl 3-((1-(2-chlorophenyl)-2-oxocyclohexyl)amino)propanoate Hydrochloride]	–	6.48	6.67	420 ± 180 s	–	–	7.28	7.92	–	–	0 s	0 s	404 ± 196 s	–	136 ± 67 mg/kg	131 ± 62 mg/kg	–	–	–
CCCOC(=O)CCCNC1(c2ccccc2Cl)CCCCC1=O.Cl (racemic) [rac-C3nPr, N-Propyl 4-((1-(2-chlorophenyl)-2-oxocyclohexyl)amino)butanoate Hydrochloride]	–	7.46	6.64	558 ± 42 s	–	–	5.95	4.77	0.012	0.05	65 ± 33 s	10 ± 5.5 s	329 ± 106 s	–	209 ± 20 mg/kg	137 ± 48 mg/kg	–	–	–
CCOC(=O)CCCCNC1(c2ccccc2Cl)CCCCC1=O.Cl (racemic) [rac-C4Et, Rac-Ethyl 5-((1-(2-chlorophenyl)-2-oxocyclohexyl)amino)pentanoate hydrochloride]	57 ± 12 mg/kg	2.48	2.26	172 ± 36 s	34 ± 4 mg/kg	–	2.00	1.73	0.09	0.05	158 ± 22 s	134 ± 22 s	97 ± 8 s	169 to 172 °C	–	–	–	–	–
CC(C)OC(=O)CCCNC1(c2ccccc2Cl)CCCCC1=O.Cl (racemic) [rac-C3iPr, Isopropyl 4-((1-(2-chlorophenyl)-2-oxocyclohexyl)amino)butanoate hydrochloride]	66 ± 17 mg/kg	2.36	2.29	192 ± 47 s	42 ± 9 mg/kg	–	1.83	1.81	0.042	0.08	110 ± 45 s	37 ± 22 s	125 ± 21 s	167 to 169 °C	–	–	–	–	–
COC(=O)CCCCN[C@]1(c2ccccc2Cl)CCCCC1=O.Cl [(S)-C4Me, (S)-Methyl 5-((1-(2-chlorophenyl)-2-oxocyclohexyl)amino)pentanoate Hydrochloride]	–	1.76	1.81	–	–	broadly equivalent properties	1.80	1.94	0.07	0.51	–	–	–	–	–	–	–	–	–
CC(C)OC(=O)CCNC1(c2ccccc2Cl)CCCCC1=O.Cl (racemic) [rac-C2iPr, Iso-Propyl 3-((1-(2-chlorophenyl)-2-oxocyclohexyl)amino)propanoate Hydrochloride]	37 ± 6 mg/kg	1.54	1.79	127 ± 13 s	33 ± 6 mg/kg	–	1.50	1.66	0.11	0.14	153 ± 33 s	83 ± 19 s	103 ± 17 s	203 to 205 °C	–	–	–	–	–
CC(=O)OCCCN[C@]1(c2ccccc2Cl)CCCCC1=O.Cl [(S)-C3OAc, (S)-3-((1-(2-Chlorophenyl)-2-oxocyclohexyl)amino)propyl Acetate Hydrochloride]	34 ± 1 mg/kg	1.10	1.12	104 ± 7 s	26 ± 3 mg/kg	–	1.30	1.37	0.65	0.51	983 ± 93 s	566 ± 30 s	81 ± 10 s	–	–	–	1.5-2 fold	about as potent as ketamine	–
CCOC(=O)CCN[C@]1(c2ccccc2Cl)CCCCC1=O.Cl [(S)-C2Et, (S)-Ethyl 3-((1-(2-chlorophenyl)-2-oxocyclohexyl)amino) propanoate Hydrochloride]	–	2.38	2.53	185 ± 55 s	–	–	2.95	3.22	0.05	0.04	80 ± 8 s	62 ± 8 s	171 ± 54 s	–	62 ± 20 mg/kg	59 ± 19 mg/kg	–	only half as potent	faster recoveries than the corresponding racemates
CC(=O)OCCCNC1(c2ccccc2Cl)CCCCC1=O.Cl (racemic) [rac-C3OAc, Rac-3-((1-(2-Chlorophenyl)-2-oxocyclohexyl)amino)propyl Acetate Hydrochloride]	–	–	–	–	–	–	–	–	–	–	–	–	–	180 to 183 °C	–	–	–	–	–
CCCOC(=O)CCCCNC1(c2ccccc2Cl)CCCCC1=O.Cl (racemic) [rac-C4nPr, N-Propyl 5-((1-(2-chlorophenyl)-2-oxocyclohexyl)amino)pentanoate Hydrochloride]	–	3.19	3.60	277 ± 97 s	–	–	3.56	4.17	0.05	0.08	90 ± 30 s	45 ± 15 s	271 ± 97 s	–	83 ± 34 mg/kg	82 ± 34 mg/kg	–	–	–
